Reference: article PMC5003771 (Molecular microbiology, 2015)

Tests used:
[1] = molecular target: CabPA (Streptococcus mutans, UniProt Q8DT33); assay: DRaCALA, […]-labelled c-di-AMP on nitrocellulose; type: binding
[2] = molecular target: CabPB (Streptococcus mutans, UniProt Q8DSR3); assay: DRaCALA, […]-labelled c-di-AMP on nitrocellulose; type: binding

Nc1ncnc2c1ncn2[C@@H]1O[C@@H]2COP(=O)(O)O[C@H]3[C@@H](O)[C@H](n4cnc5c(N)ncnc54)O[C@@H]3COP(=O)(O)O[C@H]2[C@H]1O [c-di-AMP] showed a Kd [1] of 7.8 ± 0.3 µM and a Kd [2] of 1.2 ± 0.2 µM.
